Data on nine molecules can be found in patent US9738641B2, “Bicyclic inhibitors” (Kalvista Pharmaceuticals Limited, priority 2013, dated 2017).

For data set [1] the following is noted: in vivo; cited from earlier work.
Data set [2] has as its system retinal vascular permeability and retinal blood flow. The following applies: diabetic rats; cited from earlier work.
In another data set the target is Human plasma kallikrein (Homo sapiens (Human), UniProt P03952). Kind of data set: Determination of the IC50 for plasma kallikrein (fluorogenic substrate H-DPro-Phe-Arg-AFC). The format is biochemical. The note with it: 37° C., read-out: IC50 (human PKal). The method, then: Determination of the IC50 for Plasma Kallikrein
Plasma kallikrein inhibitory activity in vitro was determined using standard published methods (see e.g. Johansen et al., Int. J. Tiss. Reac. 1986, 8, 185; Shori et al., Biochem. Pharmacol., 1992, 43, 1209; Stürzebecher et al., Biol. Chem. Hoppe-Seyler, 1992, 373, 1025). Human plasma kallikrein (Protogen) was incubated at 37° C. with the fluorogenic substrate H-DPro-Phe-Arg-AFC and various concentrations of the test compound. Residual enzyme activity (initial rate of reaction) was determined by measuring the change in optical absorbance at 410 nm and the IC50 value for the test compound was determined.

The target of a further data set is Human KLK1 (Homo sapiens (Human), UniProt P06870). Kind of data set: Determination of the IC50 for KLK1 (fluorogenic substrate H-DVal-Leu-Arg-AFC). In kind it is biochemical. The note with it: 37° C. As to the method: Determination of the IC50 for KLK1
KLK1 inhibitory activity in vitro was determined using standard published methods (see e.g. Johansen et al., Int. J. Tiss. Reac. 1986, 8, 185; Shori et al., Biochem. Pharmacol., 1992, 43, 1209; Stürzebecher et al., Biol. Chem. Hoppe-Seyler, 1992, 373, 1025). Human KLK1 (Callbiochem) was incubated at 37° C. with the fluorogenic substrate H-DVal-Leu-Arg-AFC and various concentrations of the test compound. Residual enzyme activity (initial rate of reaction) was determined by measuring the change in optical absorbance at 410 nm and the IC50 value for the test compound was determined.

Sequence of Human KLK1 (P06870 25-262): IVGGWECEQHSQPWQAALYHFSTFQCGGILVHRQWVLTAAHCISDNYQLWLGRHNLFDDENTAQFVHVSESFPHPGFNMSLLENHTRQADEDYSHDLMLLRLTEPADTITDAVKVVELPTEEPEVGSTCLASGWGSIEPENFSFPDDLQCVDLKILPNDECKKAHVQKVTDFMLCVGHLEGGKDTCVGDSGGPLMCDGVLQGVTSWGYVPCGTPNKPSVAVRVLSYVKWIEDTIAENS
Sequence of Human plasma kallikrein (P03952 391-638): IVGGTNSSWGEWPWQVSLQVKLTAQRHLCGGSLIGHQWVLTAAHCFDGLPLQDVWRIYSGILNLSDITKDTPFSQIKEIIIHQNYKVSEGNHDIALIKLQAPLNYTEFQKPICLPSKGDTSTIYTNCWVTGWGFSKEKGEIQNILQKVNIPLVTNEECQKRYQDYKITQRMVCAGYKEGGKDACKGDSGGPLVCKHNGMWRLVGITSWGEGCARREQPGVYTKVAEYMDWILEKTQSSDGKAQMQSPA
Sequence of Human plasma kallikrein (P03952 20-390 partner): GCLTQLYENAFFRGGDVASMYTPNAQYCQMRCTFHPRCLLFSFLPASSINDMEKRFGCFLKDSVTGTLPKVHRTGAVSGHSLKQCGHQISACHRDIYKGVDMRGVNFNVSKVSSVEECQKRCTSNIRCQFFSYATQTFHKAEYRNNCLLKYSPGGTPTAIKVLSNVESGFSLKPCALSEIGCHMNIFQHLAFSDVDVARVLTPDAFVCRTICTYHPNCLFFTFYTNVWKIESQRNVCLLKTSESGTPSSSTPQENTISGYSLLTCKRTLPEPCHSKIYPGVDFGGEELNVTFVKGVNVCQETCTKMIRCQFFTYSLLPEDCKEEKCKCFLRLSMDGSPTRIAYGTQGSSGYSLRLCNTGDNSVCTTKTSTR

As for `N=C(N)c1ccc(CNC(=O)c2cnn(Cc3ccccc3)c2)cc1` [ASP-440], the oral availability entry in data set [1] is “poor oral availability”. Moreover, in data set [2], the “effect on retinal vascular permeability and retinal blood flow abnormalities” value was “ameliorated both retinal vascular permeability and retinal blood flow abnormalities”.
One may read the IC50 as the concentration needed to halve the response being measured. On to `O=c1ccccn1Cc1ccc(Cn2ccc3c(NCc4cnc5[nH]ccc5c4)nccc32)cc1` [Example 3, 1-(4-{4-[(1H-Pyrrolo[2,3-b]pyridin-5-ylmethyl)-amino]-pyrrolo[3,2-c]pyridin-1-ylmethyl}-benzyl)-1H-pyridin-2-one], for which the IC50 at Human plasma kallikrein was 5.46 µM; on Human KLK1, 5.69 µM.
The matching figures for `c1ccc(-c2nc(Cn3ccc4c(NCc5cnc6[nH]ccc6c5)nccc43)cs2)cc1` [Example 4, [1-(2-Phenyl-thiazol-4-ylmethyl)-1H-pyrrolo[3,2-c]pyridin-4-yl]-(1H-pyrrolo[2,3-b]pyridin-5-ylmethyl)-amine]: 5.32 µM and 10.3 µM.
On to `NCc1ccc(CNc2nccc3c2ccn3CCCCc2ccccc2)cc1` [Example 5, (4-Aminomethyl-benzyl)-[1-(4-phenyl-butyl)-1H-pyrrolo[3,2-c]pyridin-4-yl]-amine], for which the half-maximal inhibitory concentration (IC50) at Human plasma kallikrein is 29 µM; on Human KLK1 it was 38.6 µM.
Turning to `Cc1cc(CN)ccc1CNc1nccc2c1ccn2Cc1csc(-c2ccccc2)n1` [Example 6, (4-Aminomethyl-2-methyl-benzyl)-[1-(2-phenyl-thiazol-4-ylmethyl)-1H-pyrrolo[3,2-c]pyridin-4-yl]-amine], the IC50 is 8.59 µM on Human plasma kallikrein and 8.14 µM against Human KLK1.
Consider `NCc1ccc(CNc2nccc3c2ccn3Cc2ccc(Cn3ccccc3=O)cc2)cc1` [Example 7, 1-{4-[4-(4-Aminomethyl-benzylamino)-pyrrolo[3,2-c]pyridin-1-ylmethyl]-benzyl}-1H-pyridin-2-one], for which the results for the IC50 on Human plasma kallikrein and at Human KLK1 were 5.37 µM and 29.9 µM, respectively.
Regarding `Cc1cc(CN)ccc1CNc1nccc2c1ccn2Cc1ccc(Cn2ccccc2=O)cc1` [Example 8, 1-{4-[4-(4-Aminomethyl-2-methyl-benzylamino)-pyrrolo[3,2-c]pyridin-1-ylmethyl]-benzyl}-1H-pyridin-2-one], the 50% inhibitory concentration (IC50) was 6.3 µM at Human plasma kallikrein and 5.3 µM against Human KLK1.
For the molecule `NCc1ccc(CNc2nccc3c2ccn3Cc2csc(-c3ccccc3)n2)cc1` [Example 9, (4-Aminomethyl-benzyl)-[1-(2-phenyl-thiazol-4-ylmethyl)-1H-pyrrolo[3,2-c]pyridin-4-yl]-amine], the 50% inhibitory concentration (IC50) is 8.1 µM on Human plasma kallikrein and 8.26 µM on Human KLK1.
`Cc1cnn(Cc2ccc(CN3CCOc4c(NCc5ccc6c(N)nccc6c5)ncnc43)cc2)c1` [Example 10, (1-Amino-isoquinolin-6-ylmethyl)-{8-[4-(4-methyl-pyrazol-1-ylmethyl)-benzyl]-7,8-dihydro-6H-pyrimido[5,4-b][1,4]oxazin-4-yl}-amine]: the IC50 at Human plasma kallikrein was determined as 20.5 µM; at Human KLK1, 5.04 µM.
